Assay results: patent US9278134B2, “Dual functioning ionic liquids and salts thereof” (priority 2008, dated 2016)
Like-named read-outs stand apart in the source and are kept apart here.

How the values were obtained:
[1] = Thermocleavage of ionic liquid immobilized fragrance by TGA; type: physicochemical; details: TGA (FIG. 6)
[2] = Thermal decomposition onset (T5% onset) by TGA
[3] = Viscosity of propantheline p-toluenesulfonate (PtTos)/water composites; type: physicochemical; details: * instrument limit
Text: (§1) Viscosity, conductivity and ΔW values for various propantheline p-toluenesulfonate (PtTos)/water composites.

[4] = Walden plot: ΔW / degree of ionicity; type: physicochemical; details: for degree of ionicity (ionized): estimated from the Walden plot (FIG. 7)
Text: Many examples of liquid organic salts are far from fully ionized. Instead, they form ion pairs and aggregates of ions in the liquid state and are better described as Liquid Ion Pairs than “Ionic Liquids”. The distinction between these states can be made on the basis of the behavior of the transport property data when plotted in a Walden plot. The Walden plot is a graph of log equivalent conductivity (corrected for molar volume) vs. log fluidity and thus may be used to estimate the degree of association cations and anions (as correlated motion of cation and anion clusters). […] Liquid Ion Pairs lie beyond this region, i.e., more than one order of magnitude away from the Ideal line. Such liquid salts are less than 10% ionized. Examples of such liquid salts of therapeutic ions include propanthaline tosylate which is about 1% ionized, as estimated from the Walden plot (FIG. 7).
With addition of 25 weight % water, ΔW value decreased. This is true for all of the propantheline p-toluenesulfonate/water systems studied.

[5] = Conductivity of propantheline p-toluenesulfonate (PtTos)/water composites; type: physicochemical
Text: as §1

[6] = TGA/DSC, 25° C. to 600° C. with 5° C./min under nitrogen, ephedrinium clofibrate co-ionic liquids prepared by melting
[7] = TGA/DSC, 25° C. to 600° C. with 5° C./min under nitrogen, lidocaine salicylate co-ionic liquids

| Compound | T5%onset [2] | other results |
| --- | --- | --- |
| CC(C)=CCC/C(C)=C/COC(=O)Cn1cc[n+](C)c1 [Example 44, (E)-1-(2-(3,7-dimethylocta-2,6-dienyloxy)-2-oxoethyl)-3-methyl-1H-imidazol-3-ium Docusate] | 170 °C | Thermocleavage, first decomposition step (release of geraniol) [1]: Mass loss of the first decomposition step obtained corresponds to mass percentage of Geraniol [1] in the prodrug [4] |
| CC(C)Cc1ccc(C(C)C(=O)[O-])cc1.CCCC[P+](CCCC)(CCCC)CCCC [P(Bu)4Ibu 1:1, Tetrabutylphosphonium Ibuprofenate] | 234 °C | T5%onset ([2]; TGA/DSC, 25° C. to 600° C. with 5° C./min under nitrogen, tetrabutylphosphonium ibuprofenate-ibuprofenic co-ionic liquids): 234 °C |
| CCCCC(CC)COC(=O)CC(C(=O)OCC(CC)CCCC)S(=O)(=O)O.CCN(CC)CCNC(=O)c1ccc(N)cc1 (stereo not drawn) [Example 63, Procainamide Docusate] | 231 °C |  |
| CC(C)(Oc1ccc(Cl)cc1)C(=O)O.CN[C@@H](C)[C@H](O)c1ccccc1.CN[C@@H](C)[C@H](O)c1ccccc1 [Eph:Clofib 2:1, Ephedrinium Clofibrate] |  | Tonset 5% [2, 6]: 135 °C |
| CC(=O)Nc1ccc(OC(=O)Cn2cc[n+](C)c2)cc1 [Example 31, 1-(2-(4-acetamidophenoxy)-2-oxoethyl)-3-methyl-1H-imidazol-3-ium Chloride] | 200 °C |  |
| Cetylpyridinium Salicylate-cinnamate [CetPySalCinnH] | 162 °C |  |
| Cetylpyridinium Salicylate-salicylic Acid [CetPy:Sal 1:3] |  | T5%onset ([2]; TGA/DSC, 25° C. to 600° C. with 5° C./min under nitrogen, cetylpyridinium salicylate-salicylic acid co-ionic liquids): 162 °C |
| CC(=O)Nc1ccc(OC(=O)C[N+]2(C)CCCC2)cc1.CC(O)C(=O)O [Example 40, 1-(2-(4-acetamidophenoxy)-2-oxoethyl)-1-methylpyrrolidinium Lactate] | 166 °C |  |
| CCN(CC)CC(=O)Nc1c(C)cccc1C.COc1cccc(C2(O)CCCCC2CN(C)C)c1.O=C(O)c1ccccc1O (stereo not drawn) [Example 26, Tramadolium-lidocaine Salicylate] | 181 °C |  |
| Benzethonium Salicylate [Example 53] | 180 °C |  |
| CCN(CC)CC(=O)Nc1c(C)cccc1C [Lid, lidocaine, reference compound] |  | Tonset 5% [2, 7]: 152 °C |
| CC(=O)Nc1ccc(OC(=O)C[n+]2ccccc2)cc1 [Example 33, 1-(2-(4-acetamidophenoxy)-2-oxoethyl)pyridinium Chloride] | 198 °C |  |
| CC(C)Cc1ccc(C(C)C(=O)O)cc1.COc1cccc(C2(O)CCCCC2CN(C)C)c1 (racemic) [Example 48, Tramadolium rac-ibuprofenate] | 175 °C |  |
| Lidocaine Salicylates [Lid:Sal 1:1.5] |  | Tonset 5% [2, 7]: 142 °C |
| Caffeine Salicylate [Example 13] | 111 °C |  |
| CC(=O)Nc1ccc(OC(=O)C[N+]2(C)CCCC2)cc1 [Example 32, 1-(2-(4-acetamidophenoxy)-2-oxoethyl)-1-methylpyrrolidinium Chloride] | 197 °C |  |
| CC(CN1c2ccccc2Sc2ccccc21)N(C)C.CCCCC(CC)COC(=O)CC(C(=O)OCC(CC)CCCC)S(=O)(=O)O.CN[C@@H](C)[C@H](O)c1ccccc1 (stereo not drawn) [Example 27, Promethazine-ephedrinium Docusate 1:1:1] | 164 °C |  |
| Triethanolammonium Ibuprofenate [Example 64] | 163 °C |  |
| CC(C)=CCC/C(C)=C/COC(=O)CCC(=O)O [Example 46, 2-Hydroxy-N,N,N-trimethylethanaminium (E)-4-(3,7-dimethylocta-2,6-dienyloxy)-4-oxobutanoate] | 170 °C |  |
| Ephedrinium Clofibrate [Eph:Clofib 1:2] |  | Tonset 5% [2, 6]: 182 °C |
| CC(C)Cc1ccc(C(C)C(=O)O)cc1.CCN(CC)CCNC(=O)c1ccc(N)cc1 [Example 62, Procainamide Ibuprofenate] | 182 °C |  |
| Lidocaine Salicylates [Lid:Sal 3:1] |  | Tonset 5% [2, 7]: 161 °C |
| Choline Docusate [Example 67] | 189 °C |  |
| CC(C)[N+](C)(CCOC(=O)C1c2ccccc2Oc2ccccc21)C(C)C [PtTos pure, Propantheline p-Toluenesulfonate] |  | Viscosity (mPa · s) ± 1% [3]: >2000* mPa · s; distance below the reference line in the Walden plot ([4]; FIG. 7): 2 log units; ΔW (distance form the ideal line) ([4]; Walden plot, PtTos/water composites): 2.0; degree of ionicity (ionized) [4]: approximately 1%; degree of ionicity (ionized) ([4]; listed as propanthaline tosylate): about 1%; Conductivity (S cm^−1) [5]: 5.41 × 10^−7 S cm^−1 |
| CN[C@@H](C)[C@H](O)c1ccccc1.O=C(O)c1ccccc1O [Eph:Sal 1:1, Ephedrinium Salicylate] | 161 °C |  |
| Lidocaine Salicylates [Lid:Sal 2.5:1] |  | Tonset 5% [2, 7]: 137 °C |
| COc1cccc(C2(O)CCCCC2CN(C)C)c1.Cc1ccc(Cl)c(Nc2ccccc2C(=O)O)c1Cl (stereo not drawn) [Example 50, Tramadolium Meclofenamate] | 172 °C |  |
| CC(C)=CCC/C(C)=C/COC(=O)Cn1cc[n+](C)c1 [Example 43, (E)-1-(2-(3,7-dimethylocta-2,6-dienyloxy)-2-oxoethyl)-3-methyl-1H-imidazol-3-ium Chloride] | 125 °C |  |
| CCCCC(CC)COC(=O)CC(C(=O)OCC(CC)CCCC)S(=O)(=O)[O-].CCCC[P+](CCO)(CCCC)CCCC (stereo not drawn) [Example 66, Tributylhydroxyethylphosphonium Docusate] | 280 °C |  |
